Patent US4889857A, “Quinolonecarboxylic acid compounds and pharmaceutical use thereof” (Yoshitomi Pharmaceutical Industries, Ltd., priority 1987, dated 1989)
In brackets after ≈: the same amount, converted by molar mass. Where two headings read alike, the source gives them in different places.

Experiments:
[1] = system: Flavobacterium meningosepticum IFO 12535; test: Antibacterial activity in vitro (MIC); type: cell-based; conditions: Elizabethkingia meningoseptica, IFO12535; inoculum 10^6 cells/ml
[2] = system: Alcaligenes faecalis NCTC 415; test: Antibacterial activity in vitro (MIC); type: cell-based; conditions: NCTC415, inoculum 10^6 cells/ml
[3] = system: Aerobacter aerogenes IFO 12979; test: Antibacterial activity in vitro (MIC); type: cell-based; conditions: Klebsiella aerogenes, IFO12979
[4] = system: Streptococcus sarivaris IFO 13956; test: Antibacterial activity in vitro (MIC); type: cell-based
[5] = system: Proteus vulgaris IFO 3988; test: Antibacterial activity in vitro (MIC); type: cell-based
Description: (§1) The antibacterial activities in vitro (minimum inhibitory concentration, MIC, μg/ml) of the test compounds were measured according to the standard method of the Japanese Chemotherapy Society (Chemotherapy, Vol. 23, p.1126, 1974).
(§2) (Inoculum size: 10^6 cells/ml, Organisms with asterisk (*) were
(§3) cultivated in a 10% horse bloodadded medium.)

[6] = system: Streptococcus lactis IFO 12546; test: Antibacterial activity in vitro (MIC); type: cell-based; conditions: Lactococcus lactis, IFO12546; inoculum 10^6 cells/ml; 10% horse blood-added medium; read-out: MIC
Description: as §1, §2, §3

[7] = system: Pseudomonas aeruginosa U-31; test: Antibacterial activity in vitro (MIC); type: cell-based; conditions: U31, inoculum 10^6 cells/ml, read-out: MIC
Description: as §1, §2, §3

[8] = system: Shigella flexneri EW-10; test: Antibacterial activity in vitro (MIC); type: cell-based; conditions: EW10, inoculum 10^6 cells/ml
Description: as §1, §2, §3

[9] = system: Escherichia coli O-111; test: Antibacterial activity in vitro (MIC); type: cell-based; conditions: O111, inoculum 10^6 cells/ml
Description: as §1, §2, §3

[10] = system: Acinetobacter calcoaceticus ATCC 13006; test: Antibacterial activity in vitro (MIC); type: cell-based
Description: as §1, §2, §3

[11] = system: Shigella typhosa Boxhill-58; test: Antibacterial activity in vitro (MIC); type: cell-based
Description: as §1, §2, §3

[12] = system: Streptococcus sp. IFO 3535; test: Antibacterial activity in vitro (MIC); type: cell-based; conditions: IFO3535, inoculum 10^6 cells/ml, 10% horse blood-added medium, read-out: MIC
Description: as §1, §2, §3

[13] = system: Shigella sonnei EW-33; test: Antibacterial activity in vitro (MIC); type: cell-based; conditions: EW33, inoculum 10^6 cells/ml
Description: as §1, §2, §3

[14] = system: Citrobacter freundii IFO 12681; test: Antibacterial activity in vitro (MIC); type: cell-based; conditions: IFO12681, inoculum 10^6 cells/ml
Description: as §1, §2, §3

[15] = system: Bacillus subtilis PCT 219; test: Antibacterial activity in vitro (MIC); type: cell-based
Description: as §1, §2, §3

[16] = system: Pediococcus damnosus IFO 3895; test: Antibacterial activity in vitro (MIC); type: cell-based
Description: as §1, §2, §3

[17] = system: Xanthomonas maltophilia IFO 12690; test: Antibacterial activity in vitro (MIC); type: cell-based; conditions: Stenotrophomonas maltophilia, IFO12690; inoculum 10^6 cells/ml
Description: as §1, §2, §3

[18] = system: Escherichia coli NIHJ JC-2; test: Antibacterial activity in vitro (MIC); type: cell-based
Description: as §1, §2, §3

[19] = system: Pseudomonas aeruginosa IFO 12582; test: Antibacterial activity in vitro (MIC); type: cell-based
Description: as §1, §2, §3

[20] = system: Serratia marcescens IFO 12648; test: Antibacterial activity in vitro (MIC); type: cell-based
Description: as §1, §2, §3

[21] = system: Staphylococcus aureus 1840; test: Antibacterial activity in vitro (MIC); type: cell-based
Description: as §1, §2, §3

[22] = system: Streptococcus viridans America; test: Antibacterial activity in vitro (MIC); type: cell-based
Description: as §1, §2, §3

[23] = system: Staphylococcus epidermidis ATCC 12228; test: Antibacterial activity in vitro (MIC); type: cell-based
Description: as §1, §2, §3

[24] = system: Pseudomonas putida IFO 12996; test: Antibacterial activity in vitro (MIC); type: cell-based; conditions: IFO12996, inoculum 10^6 cells/ml, read-out: MIC
Description: as §1, §2, §3

[25] = system: Staphylococcus aureus FDA 209P; test: Antibacterial activity in vitro (MIC); type: cell-based; conditions: FDA209P
Description: as §1, §2, §3

[26] = system: S. pyogenes C-203; test: Protective effect against experimental infection in mice; type: in vivo; conditions: oral, 1 h after i.p. inoculation of 4.42 × 10^4 cells/mouse [680 LD50]; survival day 7; 95% confidence limit
Description: (§4) Experimental infection was caused by inoculating male mice intraperitoneally with each organism. Each of the test compounds was administered orally to the mice, one hour after the inoculation. The therapeutic effect of each compounds was judged by using a 50% effective dose (ED50) from the survival rate on day 7 after injection by the Probit method as described in Proc. Soc. Exp. Biol. Med., Vol. 57, p.261-264, 1944. The Minimum inhibitory concentrations (MIC) were also measured.
(§5) (The overnight cultures of test organisms with an asterisk (*) were
(§6) diluted with 50% mucin and 0.5 ml of each was injected intraperitoneally
(§7) into mice. A double asterisk (**) means a 95% confidence limit. MRSA mean
(§8) methycillinresistant Staphylococcus aureus.)

[27] = system: S. aureus 109(MRSA); test: as above; type: in vivo; conditions: oral, 1 h after i.p. inoculation of 4.93 × 10^8 cells/mouse [5.7 LD50] with mucin; survival day 7; 95% confidence limit
Description: as §4, §5, §6, §7, §8

[28] = system: E. coli KC-14; test: as above; type: in vivo; conditions: oral, 1 h after i.p. inoculation of 5.75 × 10^4 cells/mouse [488 LD50] with mucin; survival day 7; 95% confidence limit
Description: as §4, §5, §6, §7, §8

[29] = system: S. pneumoniae Type III; test: as above; type: in vivo; conditions: oral, 1 h after i.p. inoculation of 6.0 × 10^2 cells/mouse [12 LD50]; survival day 7; 95% confidence limit
Description: as §4, §5, §6, §7, §8

[30] = system: S. aureus Smith; test: as above; type: in vivo; conditions: oral, 1 h after i.p. inoculation of 2.13 × 10^6 cells/mouse [792 LD50] with mucin; survival day 7; 95% confidence limit
Description: as §4, §5, §6, §7, §8

[31] = system: Streptocccus pneumoniae Type 1; test: Antibacterial activity in vitro (MIC); type: cell-based
[32] = system: Streptococcus pyogenes S-8; test: Antibacterial activity in vitro (MIC); type: cell-based
[33] = system: Staphylococcus aureus FDA 209P*; test: Antibacterial activity in vitro (MIC), horse blood medium; type: cell-based; conditions: FDA209P
Description: as §1, §2, §3

[34] = system: Enterobacter cloacae IFO 12937; test: Antibacterial activity in vitro (MIC); type: cell-based
[35] = inoculum 10^6 cells/ml, read-out: MIC
[36] = inoculum 10^6 cells/ml, 10% horse blood-added medium, read-out: MIC

| Structure (SMILES) | MIC [1] [µg/mL] | MIC [2] [µg/mL] | MIC [6] [µg/mL] | MIC [7] [µg/mL] | MIC [8] [µg/mL] | MIC [9] [µg/mL] | MIC [11] [µg/mL] | MIC [12] [µg/mL] | MIC [13] [µg/mL] | MIC [14] [µg/mL] | MIC [17] [µg/mL] | MIC [24] [µg/mL] | ED50 [26] | ED50 [27] | ED50 [28] | ED50 [29] | ED50 [30] | further results |
| --- | --- | --- | --- | --- | --- | --- | --- | --- | --- | --- | --- | --- | --- | --- | --- | --- | --- | --- |
| CNCC1CN(c2c(F)cc3c(=O)c(C(=O)O)cn(C4CC4)c3c2F)CCO1 (centres unmarked) [Compound A, 1-cyclopropyl-6,8-difluoro-1,4,-dihydro-7-[2-(methylaminomethyl)morpholino]-4-oxoquinoline-3-carboxylic acid] | 1.56 (≈ 3.97 µM) | 1.56 (≈ 3.97 µM) | 1.56 (≈ 3.97 µM) | 1.56 (≈ 3.97 µM) | 0.025 (≈ 0.0636 µM) | 0.2 (≈ 0.508 µM) | 0.05 (≈ 0.127 µM) | 1.56 (≈ 3.97 µM) | 0.025 (≈ 0.0636 µM) | 0.2 (≈ 0.508 µM) | 0.1 (≈ 0.254 µM) | 1.56 (≈ 3.97 µM) | 0.214(0.124-0.388) mg/mouse | 0.061(0.041-0.093) mg/mouse | 0.028(0.019-0.042) mg/mouse | 0.707(0.453-1.104) mg/mouse | 0.068(0.044-0.104) mg/mouse | MIC [3]: 0.2 µg/mL (≈ 0.508 µM); MIC ([4]; IFO13956): 0.2 µg/mL (≈ 0.508 µM); MIC ([5]; IFO3988): 0.78 µg/mL (≈ 1.98 µM); MIC ([10]; ATCC13006): 0.39 µg/mL (≈ 0.991 µM); MIC ([15]; PCT219, inoculum 10^6 cells/ml, read-out: MIC): 0.012 µg/mL (≈ 0.0305 µM); MIC ([16]; IFO3895): 0.39 µg/mL (≈ 0.991 µM); MIC ([18]; NIHJJC2): 0.1 µg/mL (≈ 0.254 µM); MIC ([19]; IFO12582): 3.13 µg/mL (≈ 7.96 µM); MIC ([20]; IFO12648): 0.78 µg/mL (≈ 1.98 µM); MIC [21]: 0.1 µg/mL (≈ 0.254 µM); MIC [22]: 0.2 µg/mL (≈ 0.508 µM); MIC ([23]; ATCC12228): 0.05 µg/mL (≈ 0.127 µM); MIC [25]: 0.025 µg/mL (≈ 0.0636 µM); MIC [31]: 0.05 µg/mL (≈ 0.127 µM); MIC ([32]; S8): 0.1 µg/mL (≈ 0.254 µM); MIC [33]: 0.025 µg/mL (≈ 0.0636 µM); MIC ([34]; IFO12937): 0.78 µg/mL (≈ 1.98 µM) |
| CC1COc2c(N3CCN(C)CC3)c(F)cc3c(=O)c(C(=O)O)cn1c23 (centres unmarked) [OFLX, 9-fluoro-3-methyl-10-(4-methyl-1-piperazinyl)-7-oxo-2,3-dihydro-7H-pyrido[1,2,3-de][1,4]-benzoxazine-6-carboxylic acid] | 0.78 (≈ 2.16 µM) | 0.78 (≈ 2.16 µM) | 6.25 (≈ 17.3 µM) | 0.78 (≈ 2.16 µM) | 0.05 (≈ 0.138 µM) | 0.05 (≈ 0.138 µM) | 0.025 (≈ 0.0692 µM) | 3.13 (≈ 8.66 µM) | 0.025 (≈ 0.0692 µM) | 0.05 (≈ 0.138 µM) | 0.05 (≈ 0.138 µM) | 1.56 (≈ 4.32 µM) | 1.432(1.006-2.393) mg/mouse | 0.459(0.257-0.661) mg/mouse | 0.018(0.013-0.026) mg/mouse | > 2 mg/mouse | 0.380(0.253-0.601) mg/mouse | MIC [3, 35]: 1.56 µg/mL (≈ 4.32 µM); MIC ([4]; IFO13956, inoculum 10^6 cells/ml, 10% horse blood-added medium, read-out: MIC): 3.13 µg/mL (≈ 8.66 µM); MIC ([5]; IFO3988, inoculum 10^6 cells/ml, read-out: MIC): 0.1 µg/mL (≈ 0.277 µM); MIC ([10]; ATCC13006, inoculum 10^6 cells/ml, read-out: MIC): 0.2 µg/mL (≈ 0.553 µM); MIC ([15]; PCT219): 0.05 µg/mL (≈ 0.138 µM); MIC ([16]; IFO3895, inoculum 10^6 cells/ml, 10% horse blood-added medium, read-out: MIC): 0.2 µg/mL (≈ 0.553 µM); MIC ([18]; NIHJJC2, inoculum 10^6 cells/ml, read-out: MIC): 0.1 µg/mL (≈ 0.277 µM); MIC ([19]; IFO12582, inoculum 10^6 cells/ml, read-out: MIC): 1.56 µg/mL (≈ 4.32 µM); MIC ([20]; IFO12648, inoculum 10^6 cells/ml, read-out: MIC): 0.2 µg/mL (≈ 0.553 µM); MIC [21, 35]: 1.56 µg/mL (≈ 4.32 µM); MIC [22, 36]: 1.56 µg/mL (≈ 4.32 µM); MIC ([23]; ATCC12228, inoculum 10^6 cells/ml, 10% horse blood-added medium, read-out: MIC): 0.2 µg/mL (≈ 0.553 µM); MIC [25, 35]: 0.2 µg/mL (≈ 0.553 µM); MIC [31, 36]: 0.78 µg/mL (≈ 2.16 µM); MIC ([32]; S8, inoculum 10^6 cells/ml, 10% horse blood-added medium, read-out: MIC): 0.78 µg/mL (≈ 2.16 µM); MIC [33, 36]: 0.2 µg/mL (≈ 0.553 µM); MIC ([34]; IFO12937, inoculum 10^6 cells/ml, read-out: MIC): 0.39 µg/mL (≈ 1.08 µM) |
